Reference: article PMC6941357, “An in vitro toolbox to accelerate anti-malarial drug discovery and development” (Malaria Journal, 2020)
Several values for one entry are separate records, joined by “and”; a condition that tells them apart may be missing. Identical values can stand only once.

What was measured:
[1] = tested on: human liver microsomes; conditions: microsomal protein 0.5 mg/mL; ref [23]–[28] of Additional file 1; cited from earlier work
[2] = in vitro; conditions: human, microsomes
Procedure: The metabolic stability assay was adapted from a previously published method. […] Reactions were quenched at 2, 5, 15, 30 and 60 min by the addition of acetonitrile containing 150 ng/mL diazepam as internal standard. Control samples (containing no cofactor) were included (quenched at 2, 30 and 60 min) to monitor degradation in the absence of cofactor. Concentrations were determined by LC–MS (Additional file 1: Table S2) by comparison to the response for a single point calibration standard prepared in quenched microsomal matrix.
Test compound concentration versus time data were fit using an exponential decay function to determine the first-order rate constant for substrate depletion. Where deviation from first-order kinetics was evident, only the initial linear portion of the logarithmic profile was utilized to determine the initial degradation rate constant (k, min^−1). Each substrate depletion rate constant was then used to calculate the in vitro intrinsic clearance value (CLint, in vitro, µL/min/mg protein) using Eq.
Unbound in vitro CLint values were obtained by dividing the measured CLint by the measured fu in microsomes.

microsomal CLint at 1 µM ([2]; pH 7.4, Mean CLint): 21.4 µL/min/mg | microsomal CLint at 1 µM ([2]; pH 7.4, Range HLM CLint): 13.3 to 31.1 µL/min/mg
SMILES: CCOc1ccc(NC(C)=O)cc1 [phenacetin]
Literature CLint [1]: 27 µL/min/mg and 22.2 µL/min/mg
